According to patent publication US20200246298A1, “Composition for Preventing or Treating Asthma Comprising Fatty Acid as Active Ingredient” (Dongshin University Industry-Academy Cooperation, priority 2019, published 2020):

Experiments:
[1] = system: WBC cells, eosinophils, neutrophils, lymphocytes and monocytes in BALF; experiment: Blood cell analysis in BALF of mice with OVA-induced asthma; assay type: in vivo, BALB/c mice; conditions: for proliferation of leukocytes, neutrophils, lymphocytes and monocytes in BALF and serum: summary statement, ovalbumin-induced asthma
Experimental: This experiment was performed in order to examine the anti-asthmatic effects of fatty acids after inducing asthma in experimental animals by ovalbumin (OVA). Experimental animals used in the experiment were chosen because of the accumulated abundant test data and their ease of analysis and evaluation of experimental results. BALB/c mice, which are specific pathogen […] (SPF) mice, were chosen based on the related literature. Experimental animals were provided in the minimum number so as to be able to analyze experimental results and were divided into a total of 9 groups according to the substance to be administered, and each group consisted of 8 animals. […] In test groups, the animals determined to be healthy during the acclimation period were ranked by measuring the weight, and were randomly grouped so that the average weight of each group was uniform. The animals were divided into a total of 9 groups: a control group; a control group with OVA-induced asthma; a positive control group; groups administered with each of 50 mg/kg, 125 mg/kg and 250 mg/kg of oleic acid; and groups administered with each of 5 mg/kg, 25 mg/kg and 50 mg/kg of palmitic acid. The animals were sensitized via intraperitoneal injection of OVA once a week for 2 weeks after the acclimation period. During 5 days of week 3, dexamethasone (DEX) and the test substances oleic acid and palmitic acid were orally administered in the morning and 5% OVA solution was inhaled in the afternoon. The test substance was orally administered in an amount of 28 μL per weight (g) of the experimental animal, and OVA for sensitization was administered in a constant amount regardless of the weight. After 5 days of administration, autopsy was performed the next day. Intraperitoneal administration: based on the related literature, 20 μg OVA+1 mg aluminum hydroxide+500 μL/head of normal saline were administered. For a total of 50 animals to be administered, 1000 μg OVA+50 mg aluminum hydroxide+25 mL of normal saline were prepared. The animals were sensitized by intraperitoneal injection once a week for 2 weeks, and injected with the test substance by a 1 mL syringe. Oral administration: the control group and the asthma-induced control group were administered with saline, and oleic acid and palmitic acid were used in dissolved in saline at various concentrations. Dexamethasone was dissolved in saline by stirring and prepared according to a final dose. All preparations were prepared on the day of administration. Inhalation: a solution containing 1 g OVA+20 mL normal saline (5% OVA solution) was prepared, stirred and administered. A forced inhalation was performed using a nebulizer (OMRON, NE-U17) for 5 days, and systemic exposure was performed using an inhalation exposure chamber. Collection of bronchoalveolar lavage fluid (BALF): the anesthetized animal tissue was opened with tweezers to secure the trachea, and then a surgical thread was placed underneath and loosely tied, and the trachea was slightly cut with scissors. Then, 0.2 mL of PBS was placed into a syringe with the needle removed, and the syringe was inserted into a sonde and then injected into the trachea. After injection, BALF was collected by injecting PBS again. 0.2 mL of BALF was collected three times in the same manner. The first BALF was placed in tube No. 1, the second and third BALFs were placed in tube No. 2. The blood cell analysis in BALF were performed (Lee et al., 2017; Bang et al., 2015). One day after the final treatment, the mice were anesthetized with intraperitoneal injections of 50 mg/kg Zoletin (Virbac, Fort Worth, Tex., USA), and their tracheas were cannulated with disposable animal feeding needles. Lavages were performed with three 0.4 ml aliquots of cold phosphate-buffered saline (PBS). The BALF samples were collected and immediately centrifuged at 3000 rpm for 5 minutes at 4° C. (Sorvall Legend Micro 17R, Thermo Fisher Scientific, Inc. Marietta, Ohio, USA). […]

IgE = experiment: Analysis of IgE in BALF (Mouse IgE ELISA), OVA-induced asthma; assay type: in vivo, BALB/c mice; conditions: 5 days, vs OVA-sensitized group
Experimental: In test groups, the animals determined to be healthy during the acclimation period were ranked by measuring the weight, and were randomly grouped so that the average weight of each group was uniform. The animals were divided into a total of 9 groups: a control group; a control group with OVA-induced asthma; a positive control group; groups administered with each of 50 mg/kg, 125 mg/kg and 250 mg/kg of oleic acid; and groups administered with each of 5 mg/kg, 25 mg/kg and 50 mg/kg of palmitic acid. The animals were sensitized via intraperitoneal injection of OVA once a week for 2 weeks after the acclimation period. During 5 days of week 3, dexamethasone (DEX) and the test substances oleic acid and palmitic acid were orally administered in the morning and 5% OVA solution was inhaled in the afternoon. The test substance was orally administered in an amount of 28 μL per weight (g) of the experimental animal, and OVA for sensitization was administered in a constant amount regardless of the weight. After 5 days of administration, autopsy was performed the next day. Immunoglobulin E (IgE) is a type of protein called antibody that plays an important role in allergic reactions. When IgE is exposed to a certain substance, the immune system begins to produce IgE in order to protect the body. […] 50 μL of a stop solution was added to each well, and the absorbance at 450 nm was measured.

| SMILES | number of differential cells in BALF ([1]; oleic acid 50, 125, 250 mg/kg oral, 5 days, FIG. 1) | number of WBC cells ([1]; oleic acid 50, 125, 250 mg/kg oral, 5 days, vs OVA-sensitized group, FIG. 2) | number of eosinophils (EOs) ([1]; oleic acid 50, 125, 250 mg/kg oral, 5 days, vs OVA-sensitized group, FIG. 3) | number of neutrophils (NEs) ([1]; oleic acid 50, 125, 250 mg/kg oral, 5 days, vs OVA-sensitized group, FIG. 4) | number of lymphocytes (LYs) ([1]; oleic acid 50, 125, 250 mg/kg oral, 5 days, vs OVA-sensitized group, FIG. 5) | number of monocytes (MOs) ([1]; oleic acid 50, 125, 250 mg/kg oral, 5 days, vs OVA-sensitized group, FIG. 6) | proliferation of leukocytes, neutrophils, lymphocytes and monocytes in BALF and serum [1] | quantity of IgE (IgE; oleic acid 50, 125, 250 mg/kg oral, FIG. 13) | number of differential cells in BALF ([1]; palmitic acid 5, 25, 50 mg/kg oral, 5 days, FIG. 7) | number of WBC cells ([1]; palmitic acid 5, 25, 50 mg/kg oral, 5 days, vs OVA-sensitized group, FIG. 8) | number of neutrophils (NEs) ([1]; palmitic acid 5, 25, 50 mg/kg oral, 5 days, vs OVA-sensitized group, FIG. 10) | number of monocytes (MOs) ([1]; palmitic acid 5, 25, 50 mg/kg oral, 5 days, vs OVA-sensitized group, FIG. 12) | quantity of IgE (IgE; palmitic acid 5, 25, 50 mg/kg oral, FIG. 14) |
| --- | --- | --- | --- | --- | --- | --- | --- | --- | --- | --- | --- | --- | --- |
| CCCCCCCC/C=C\CCCCCCCC(=O)O [oleic acid] | dose-dependently decreased | dose-dependently decreased | dose-dependently decreased | dose-dependently decreased | dose-dependently decreased | dose-dependently decreased | inhibit | dose-dependently decreased |  |  |  |  |  |
| CCCCCCCCCCCCCCCC(=O)O [palmitic acid] |  |  |  |  |  |  | inhibit |  | dose-dependently decreased | dose-dependently decreased | dose-dependently decreased | dose-dependently decreased | dose-dependently decreased |
